“And” between values parts separate entries of the source, which are not always exact repeats. Equal values may be shown once.
Key:
[1] = tested on: hAPP-J20 (J20) mice; experiment: Morris water maze #2, hAPP-J20 mice; conditions: for %Target Quadrant / Crossing Frequency / Latency to Target / Training Latency: ISRIB 2.5mpk in DMSO/PEG
[2] = tested on: prion disease mouse models; conditions: in vivo, ip, 0.25 mg/kg; cited from earlier work
[3] = tested on: rodents; set-up: method as in Sidrauski et al., 2013; conditions: delivered immediately after a stimulus or behavioral task; ref Sidrauski et al., 2013; cited from earlier work
[4] = ISRIB plasma levels in satellite mice (pharmacokinetic data); conditions: 2.5 hours post-administration, individual mouse
[5] = set-up: method as in Di Prisco et al., 2014; conditions: acute treatment; ref Di Prisco et al., 2014; cited from earlier work
[6] = tested on: nontransgenic mice; experiment: Contextual fear conditioning; conditions: ISRIB 2.5mpk, individual mice
[7] = tested on: nontransgenic mice; experiment: Pilot Morris water maze #1 (spatial learning and memory); conditions: for MWM training distance Trial*ISRIB (linear mixed effects regression model) / MWM training latency Trial*ISRIB (linear mixed effects regression model): vs vehicle; for MWM training latency Trial*ISRIB (linear mixed effects regression model): 6-7 month-old nontransgenic mice; for %Target Quadrant (percent time spent in target quadrant) / Crossing Frequency (number of platform crossings) / Latency to Target: individual mice
[8] = 0.1 mpk i.p. after each training trial
[9] = 0.25 mpk i.p. after each training trial
[10] = 24-hour probe trial (Fig 2B), 0.1mpk
[11] = 24-hour probe trial (Fig 2B), 0.25mpk

Compound: O=C(COc1ccc(Cl)cc1)NC1CCC(NC(=O)COc2ccc(Cl)cc2)CC1 (stereo not shown) [ISRIB]
- learning during the training trials ([1]; 0.25 or 2.5 mpk): did not observe an improvement in learning
- spatial memory treatment effects ([1]; 72 hour probe trial, 0.25 or 2.5 mpk): did not observe significantly positive treatment effects
- %Target Quadrant ([1]; Fig 4E, individual mice): 31.3647% and 28.3617% and 19.6864% and 31.5871% and 22.6894% and 33.1443% and 19.1302% and 8.787% and 27.8056% and 30.5861% and 20.9098% and 21.7996%
- Crossing Frequency ([1]; Fig 4E, individual mice): 3 and 2 and 0 and 1
- Latency to Target ([1]; Fig 4E, individual mice): 3.136 and 38.1715 and 60 and 8.542 and 51.318 and 28.5619 and 11.0777
- Crossing Frequency ([1]; Fig 4F, individual animals): 3 and 1 and 0 and 4
- Latency to Target ([1]; Fig 4F, individual animals): 7.941 and 17.6843 and 60 and 4.8048 and 4.538 and 12.7461 and 25.1585 and 9.076
- %Target Quadrant ([1]; Fig 4F, individual mice): 32.9218% and 31.4759% and 23.2455% and 26.026% and 17.9068% and 37.2595% and 13.013% and 23.1343% and 9.676% and 36.9258% and 20.7986% and 27.6944%
- Training Latency ([1]; Trial 8, individual mice (Fig 4A-D)): 120.187 (5×) and 47.5142 and 79.2125 and 54.9216 and 27.9613 and 39.306 and 87.0204 and 3.937
- Training Latency ([1]; Trial 9, individual mice (Fig 4A-D)): 119.052 and 25.2252 and 42.5759 and 34.301 and 6.673 and 11.3447 and 10.8775 and 120.187 (2×) and 96.2296 and 50.5839 and 5.272
- Training Latency ([1]; Trial 10, individual mice (Fig 4A-D)): 11.3447 and 82.5492 and 23.8906 and 120.187 (3×) and 29.1625 and 43.9106 and 12.3457 and 39.2392 and 38.9056 and 8.008
- Training Latency ([1]; Trial 11, individual mice (Fig 4A-D)): 26.293 and 117.251 and 19.4861 and 120.187 (5×) and 28.2282 and 11.4781 and 13.4134 and 31.1645
- extension of survival [2]: approximately 1 week
- effect on spatial and fear memory [3]: enhance spatial and fear memory
- Plasma concentration ([4]; Morris water maze #1 satellite mice, 0.25 mpk i.p. (1% DMSO/saline), 0.25 mg/kg): 65.3 ng/mL and 71.9 ng/mL
- Plasma concentration ([4]; Morris water maze #2 satellite mice, 0.25 mpk i.p. (1% DMSO/saline), 0.25 mg/kg): 66.6 ng/mL and 65.6 ng/mL
- Plasma concentration ([4]; Morris water maze #2 satellite mice, 2.5 mpk i.p. (DMSO/PEG), 2.5 mg/kg): 657 ng/mL and 348 ng/mL and 286 ng/mL
- effect on object-place learning [5]: interfered with proper object-place learning
- Post-Shock ([6]; Fig 3A): 6.61 and 2.22 and 0 and 2.28 and 2.39 and 18.72 and 31.39 and 15.72 and 15.83 and 8.22 and 17.11 and 7.56 and 7 and 11.33 and 13.11 and 8.28 and 20.33 and 19.33 and 29.44 and 32.33 and 27.56
- Pre-Shock ([6]; Fig 3A): 1.67 and 0 and 0.97 and 2.33 and 0.86 and 33.64 and 1.83 and 1.44 and 1.08
- 1st 4 min context ([6]; Fig 3B): 11.1 and 4.75 and 30.01 and 15.49 and 4.44 and 18.51 and 26.85 and 38.13 and 45.92 and 9.61 and 2.13 and 12.76 and 6.75 and 15.99 and 18.96 and 31.54 and 27.17 and 21.38 and 27.25 and 14.79 and 16.25 and 41.57 and 18.94 and 33.54 and 25.69 and 47.14 and 19.89 and 27.42 and 56.35 and 28.89
- 2nd 4 min context ([6]; Fig 3B): 31.29 and 5.25 and 33.13 and 30.94 and 0 and 19.46 and 29.43 and 31.87 and 22.86 and 6.96 and 10.43 and 9.1 and 5.42 and 17.46 and 22.21 and 24.07 and 43.26 and 31.68 and 31.22 and 19.13 and 25.14 and 47.79 and 41.86 and 24.76 and 22.15 and 38.53 and 12.88 and 14.39 and 38.49 and 10.29
- 8 min context ([6]; Fig 3B): 21.54 and 5 and 31.79 and 23.22 and 2.22 and 18.99 and 28.14 and 35.24 and 34.55 and 8.28 and 6.28 and 10.93 and 6.08 and 16.72 and 20.58 and 27.86 and 35.22 and 26.54 and 29.26 and 16.96 and 20.81 and 44.68 and 30.75 and 29.15 and 24.19 and 43.22 and 16.38 and 20.9 and 47.8 and 19.59
- MWM training distance Trial*ISRIB (linear mixed effects regression model) [7, 8]: -35 cm/day
- MWM training latency Trial*ISRIB (linear mixed effects regression model) [7, 8]: −1.2 sec/day
- MWM training distance Trial*ISRIB (linear mixed effects regression model) [7, 9]: -36 cm/day
- MWM training latency Trial*ISRIB (linear mixed effects regression model) [7, 9]: −0.9 sec/day
- %Target Quadrant (percent time spent in target quadrant) [7, 10]: 44.0932% and 16.8608% and 27.6206% and 29.7282% and 34.8863% and 38.4914% and 18.802% and 29.5064% and 21.1869% and 54.6312% and 23.8491% and 29.5618% and 18.2474% and 16.6944%
- Crossing Frequency (number of platform crossings) [7, 10]: 3 and 1 and 0 and 5 and 2
- Latency to Target [7, 10]: 15.4154 and 14.3143 and 9.776 and 14.281 and 10.9109 and 23.8572 and 8.075 and 28.4618 and 6.173 and 49.9833 and 54.0207 and 5.439
- %Target Quadrant (percent time spent in target quadrant) [7, 11]: 41.7083% and 28.508% and 15.9179% and 23.35% and 35.33% and 30.3383% and 37.9922% and 36.7721% and 24.4038% and 36.5502% and 36.6057% and 35.6628% and 17.3045% and 11.2035% and 27.787%
- Crossing Frequency (number of platform crossings) [7, 11]: 4 and 1 and 2 and 3 and 5
- Latency to Target [7, 11]: 12.5459 and 7.174 and 15.2486 and 19.2526 and 12.7795 and 12.9463 and 6.24 and 43.31 and 13.5135 and 13.6804 and 10.4438 and 8.842 and 6.84 and 29.0624 and 19.3861
- %Target Quadrant (percent time spent in target quadrant) ([7]; 72-hour probe trial (Fig 2C), 0.1mpk): 24.3483% and 20.0222% and 43.7604% and 8.4304% and 14.8641% and 36.883% and 28.6744% and 19.3012% and 32.6678% and 33.9434% and 13.6439% and 27.6206% and 18.9684% and 18.4692% and 26.345%
